Laboratory results published in patent US20080125400A1, “USE OF PHOSPHOENOLPYRUVATE DERIVATIVES” (priority 2006, published 2008).

Tested on: troponin I
Assay: Randomized double-blind trial of PEPA in blood-based STH cardioplegia; blood troponin I by immunoassay (ADVIA Centaur)
Format: in vivo, human
Settings: patients undergoing coronary artery bypass surgery; versus STH without PEPA
Experimental: A study was carried out to determine the effect of PEPA on heart tissue in patients with ischemic heart disease undergoing coronary artery bypass surgery. The study was a randomized, double-blind, parallel group, comparative trial that compared the effect during surgery (and shortly thereafter) of the presence or absence of a single dose of PEPA in blood-based STH.
The patients were assigned randomly to one of two groups. For the first group, PEPA was made up in a concentration of 495 μM/L as a single dose added to blood-based STH (“PEPA+STH”). Normal blood-based STH (without PEPA) was administered to the second group. There were 37 patients in each group.
PEPA was made up under sterile conditions in 40 ml of Ringer's solution and then filtered using a sterile 0.22 μm filter to sterilize the solution. Ten mL aliquots of the sterile PEPA solution were measured and added to each of three 1 L bags of Ringer's solution under sterile conditions providing a Ringer's solution containing 990 μM/L PEPA. […]
A sample of blood was collected from each patient at regular intervals during surgery (at the time of anaesthesia and at 6 and 12 hours after the start of surgery) and after surgery (at 24, 48 and 72 hours after the start of surgery). Each sample was analyzed by an immunoassay method using an ADVIA Centaur® system to determine the level of troponin I. […]

C=C(OP(=O)(O)O)C(N)=O [PEPA, 2-(dihydroxyphosphoryloxy)prop-2-enoic amide]
overall concentration of troponin I in the blood over the period studied: markedly reduces
